According to patent US8772268B2, “Bisphosphonamidate prodrugs and uses thereof” (The Johns Hopkins University, priority 2010, dated 2014):
Values joined by “and” are separate entries in the source; they are usually repeats but may differ in a detail not shown here. Equal values may be shown once. “Also recorded” adds a separate entry of the source. Read-outs that look alike come from different tables or passages of the source.

How the values were obtained:
A549 NSCLC cells [1] = experiment: MTS cell proliferation assay, A549; assay type: cell-based; conditions: for IC50: A549, MTS, read-out: IC50 (decreased cell proliferation by 50% compared to control)
Description: Cell proliferation was determined using the CellTiter 96 Aqueous One Solution Cell Proliferation Assay MTS assay. A549 NSCLC cells were plated at 1.5×10^3 cells per well in flat bottom 96 well plates in 99 μL of media and allowed to adhere overnight. The drugs were serially diluted in 100% DMSO. For each drug treatment group, 1 μL of a 100× stock solution was added to each well for a final DMSO concentration of 1%. Cells were treated for 24, 48 or 72 hours. Cells were incubated with MTS dye (20 μL well^−1) for 40 min to 2 h. Absorbance at 490 nm was determined using a SpectraMax M2 (Molecular Devices) plate reader. The percent cell proliferation was calculated by converting the experimental absorbance to percentage of control, which was then plotted vs. drug concentration. The IC50 values were determined using a non-linear dose-response analysis in GraphPad Prism version 4.0. The IC50 is defined as the concentration of drug needed to cause a 50% decrease in proliferation compared to vehicle control. […]

A549 NSCLC cells [2] = experiment: Trypan blue cell count assay, A549; conditions: for EC50: read-out: EC50 (decreased cell number by 50% compared to control), A549, trypan blue
Description: A549 NSCLC cells were plated at 1.7×10^4 cells per well in flat bottom 12-well plates. Cells were dosed as described above. At 24, 48 or 72 hours following drug treatment, the media was collected, and the cells were washed with 200 μL PBS. Each well was trypsinized with 200 μL trypsin for 3-5 min. The trypsin reaction was quenched with an equal volume of media. All supernatants and washes were combined and spun at 1,500 rpm for 5 min. Supernatant was decanted, and the cells were resuspended in 200 μL media. The cells were diluted 1:1 in 0.04% trypan blue and counted using a cytometer. The absolute number of cells was determined at each drug concentration. The cell number for each concentration was converted to percent of control for each time point, and plotted using GraphPad Prism 4.0. The EC50 was calculated as the concentration of drug that caused a 50% decrease in number of cells compared to control.
The number of viable cells at each dose was determined at 0, 24, 48 and 72 hours following drug treatment and plotted as a percent of control (FIG. 6A).

[3] = In vivo tolerance study, intraperitoneal dosing; design: species or system Balb/C mice; conditions: listed as clodronate prodrug
Description: Thirteen Balb/C mice were split into four groups; untreated, vehicle, dose 1 and dose 2. Untreated mice received no treatment or injection. The vehicle was 100 μL of corn oil. Mice receiving dose 1 received 100 μL of 30 mM clodronate prodrug dissolved in corn oil (2.17 mg/dose), which is about 110 mg/kg dose. Mice receiving dose 2 received 100 μL of 50 mM clodronate prodrug dissolved in corn oil (3.61 mg/dose), which is about a 200 mg/kg dose. Mice were dosed on Monday of each week for two weeks. The weights were measured for 4 consecutive days following dosing.

A549 NSCLC cells [4] = experiment: Cell cycle analysis (PI and flow cytometry); assay type: cell-based; conditions: A549, 0, 3, or 10 μM for 72 h, nocodazole for the last 24 h
Description: PI and flow cytometry analysis were performed to study the effects of prodrug 14 on cell cycle.
Briefly, A549 NSCLC cells were plated at 6.7×10^4 cells per well in flat bottom 6-well plates. Cells were dosed as described above. At 24, 48 or 72 hours following drug treatment, the media was collected, and the cells were washed with 1 mL PBS. Each well was trypsinized with 600 μL trypsin for 3-5 min. The trypsin reaction was quenched with an equal volume of media. All supernatants and washes were combined and centrifuged at 1,500 rpm for 5 min. Supernantant was decanted, and the cells were washed with 2 mL 1% FBS/PBS. Cells were centrifuged at 1,500 rpm for 5 min, and the supernatant was decanted. Cells were resuspended in 1 mL cold PBS, fixed in cold 70% ethanol and incubated at 4° C. for at least 30 min. Cells were centrifuged at 1,500 rpm for 5 min, washed with 1% FBS/PBS, and resuspended in 1 mL of 2:1 1% FBS in PBS/phosphate citric acid buffer (pH 7.8). Cells were incubated at room temperature for 5 min, then spun at 1,500 rpm for 5 min. The supernatant was decanted, the cells were resuspended and incubated in 300 μL PBS/FBS/PURNase solution (10 μg/mL propidium iodide and 3 K.U. of RNase A) for 30 mM at 37° C. Flow cytometry was performed to analyze DNA content, collecting ten thousand PI positive gated events per sample.

K-562 = experiment: NCI-60 DTP Human Tumor Cell Line Screen; assay type: cell-based; conditions: K-562, Leukemia, 48 h
A549/ATCC = experiment: NCI-60 DTP Human Tumor Cell Line Screen; assay type: cell-based; conditions: Non-Small Cell Lung Cancer, 48 h
NCI-H322M = experiment: NCI-60 DTP Human Tumor Cell Line Screen; assay type: cell-based; conditions: Non-Small Cell Lung Cancer, 48 h
COLO 205 = experiment: NCI-60 DTP Human Tumor Cell Line Screen; assay type: cell-based; conditions: COLO 205, Colon Cancer, 48 h
SNB-75 = experiment: NCI-60 DTP Human Tumor Cell Line Screen; assay type: cell-based; conditions: SNB-75, CNS Cancer, 48 h
MDA-MB-435 = experiment: NCI-60 DTP Human Tumor Cell Line Screen; assay type: cell-based; conditions: MDA-MB-435, Melanoma, 48 h
SK-MEL-2 = experiment: NCI-60 DTP Human Tumor Cell Line Screen; assay type: cell-based; conditions: SK-MEL-2, Melanoma, 48 h
OVCAR-4 = experiment: NCI-60 DTP Human Tumor Cell Line Screen; assay type: cell-based; conditions: OVCAR-4, Ovarian Cancer, 48 h
OVCAR-8 = experiment: NCI-60 DTP Human Tumor Cell Line Screen; assay type: cell-based; conditions: OVCAR-8, Ovarian Cancer, 48 h
SK-OV-3 = experiment: NCI-60 DTP Human Tumor Cell Line Screen; assay type: cell-based; conditions: SK-OV-3, Ovarian Cancer, 48 h
ACHN = experiment: NCI-60 DTP Human Tumor Cell Line Screen; assay type: cell-based; conditions: Renal Cancer, 48 h

Question: For `CN(CCCCCl)P(=O)(OCc1ccc([N+](=O)[O-])cc1)C(Cl)(Cl)P(=O)(OCc1ccc([N+](=O)[O-])cc1)N(C)CCCCCl` (stereo not drawn) [compound 14], which “growth inhibitory effect on A549 cells” value (A549 NSCLC cells [1]; 48 and 72 h) is on record?
Answer: complete growth inhibition

Question: And the “growth inhibitory effect on A549 cells” value (A549 NSCLC cells [1]; 24 h)?
Answer: partial growth inhibitory effect

Question: What about the EC50 (A549 NSCLC cells [1]; A549 (NSCLC), MTS, table of Example 3) of the same compound?
Answer: 8 µM

Question: What about the IC50 (A549 NSCLC cells [1]; 24 h) of the same compound?
Answer: 7.6 ± 3 µM

Question: What about the IC50 (A549 NSCLC cells [1]; 48 h) of the same compound?
Answer: 5.2 ± 1 µM

Question: What about the IC50 (A549 NSCLC cells [1]; 72 h) of the same compound?
Answer: 4.4 ± 2 µM

Question: What about the “new growth in fresh media without drug” value (A549 NSCLC cells [2]; 72 h treatment with 30, 100 and 300 μM, then 48 h drug-free) of the same compound?
Answer: No new growth was observed

Question: And the “cell viability reduced by” value (A549 NSCLC cells [2]; A549, 24 h, highest drug concentration tested)?
Answer: 57%

Question: What about the “EC50 (trypan blue) fold higher than IC50 (MTS)” value (A549 NSCLC cells [2]; A549, 48 h) of the same compound?
Answer: ~1.6 fold

Question: What about the “viability of A549 cells, of control” value (A549 NSCLC cells [2]; higher doses over 24 h) of the same compound?
Answer: above 50%

Question: What about the EC50 (A549 NSCLC cells [2]; 48 h) of the same compound?
Answer: 19 ± 4 µM

Question: And the EC50 (A549 NSCLC cells [2]; 72 h)?
Answer: 16 ± 1 µM

Question: What about the Wt ([3]; Dose 1 (about 110 mg/kg i.p.), week 1, Apr. 11, 2011, individual mice) of the same compound?
Answer: 19.2 g and 18.3 g and 19.4 g

Question: What about the Wt ([3]; Dose 1, 2nd week of treatment, Apr. 18, 2011) of the same compound?
Answer: 19.3 g and 18.8 g and 18.4 g

Question: What about the Wt ([3]; Dose 1, 2nd week, Apr. 19, 2011) of the same compound?
Answer: 19.3 g and 18.9 g and 18.3 g

Question: What about the Wt ([3]; Dose 1, 2nd week, Apr. 20, 2011) of the same compound?
Answer: 19.4 g and 18.9 g and 18.4 g

Question: And the Wt ([3]; Dose 1, 2nd week, Apr. 21, 2011)?
Answer: 19.1 g and 18.9 g and 18.6 g

Question: What about the Wt ([3]; Dose 1, 2nd week, Apr. 22, 2011) of the same compound?
Answer: 19.3 g and 19.2 g and 18.3 g

Question: What about the Wt ([3]; Dose 1, week 1, Apr. 12, 2011) of the same compound?
Answer: 19.3 g and 18.1 g and 18.4 g

Question: And the Wt ([3]; Dose 1, week 1, Apr. 13, 2011)?
Answer: 19.8 g and 18.8 g and 18.7 g

Question: What about the Wt ([3]; Dose 1, week 1, Apr. 14, 2011) of the same compound?
Answer: 19.8 g and 18.7 g and 19.1 g

Question: And the Wt ([3]; Dose 1, week 1, Apr. 15, 2011)?
Answer: 19.5 g and 19.01 g and 18.8 g

Question: And the Wt ([3]; Dose 2 (about 200 mg/kg i.p.), week 1, Apr. 11, 2011, individual mice)?
Answer: 18.7 g and 18.2 g and 19.1 g

Question: What about the Wt ([3]; Dose 2, 2nd week of treatment, Apr. 18, 2011) of the same compound?
Answer: 19.3 g and 19.1 g and 19.5 g

Question: And the Wt ([3]; Dose 2, 2nd week, Apr. 19, 2011)?
Answer: 19.1 g and 19.3 g and 19.5 g

Question: And the Wt ([3]; Dose 2, 2nd week, Apr. 20, 2011)?
Answer: 18.8 g and 19 g

Question: And the Wt ([3]; Dose 2, 2nd week, Apr. 21, 2011)?
Answer: 19 g and 19.4 g

Question: And the Wt ([3]; Dose 2, 2nd week, Apr. 22, 2011)?
Answer: 18.9 g and 19.5 g and 20 g

Question: What about the Wt ([3]; Dose 2, week 1, Apr. 12, 2011) of the same compound?
Answer: 17.8 g and 17.7 g and 18.2 g

Question: What about the Wt ([3]; Dose 2, week 1, Apr. 13, 2011) of the same compound?
Answer: 19.07 g and 18.8 g

Question: And the Wt ([3]; Dose 2, week 1, Apr. 14, 2011)?
Answer: 19.03 g and 18.8 g and 19.1 g

Question: What about the Wt ([3]; Dose 2, week 1, Apr. 15, 2011) of the same compound?
Answer: 18.7 g and 18.2 g and 19.6 g

Question: What about the “effect on cell cycle” value (A549 NSCLC cells [4]) of the same compound?
Answer: G1 cell cycle arrest; also recorded: accumulation of cells in G1 phase is evident

Question: What about the Log10GI50 (K-562) of the same compound?
Answer: −5.45

Question: And the Log10LC50 (K-562)?
Answer: >−4.00

Question: And the Log10TGI (K-562)?
Answer: >−4.00

Question: What about the Log10GI50 (A549/ATCC) of the same compound?
Answer: −5.37

Question: And the Log10LC50 (A549/ATCC)?
Answer: >−4.00

Question: And the Log10TGI (A549/ATCC)?
Answer: >−4.00

Question: What about the Log10GI50 (NCI-H322M) of the same compound?
Answer: −5.34

Question: What about the Log10LC50 (NCI-H322M) of the same compound?
Answer: >−4.00

Question: And the Log10TGI (NCI-H322M)?
Answer: >−4.00

Question: What about the Log10GI50 (COLO 205) of the same compound?
Answer: −5.53

Question: What about the Log10LC50 (COLO 205) of the same compound?
Answer: >−4.00

Question: And the Log10TGI (COLO 205)?
Answer: −5.10

Question: What about the Log10GI50 (SNB-75) of the same compound?
Answer: −5.65

Question: What about the Log10LC50 (SNB-75) of the same compound?
Answer: >−4.00

Question: What about the Log10TGI (SNB-75) of the same compound?
Answer: −5.17

Question: And the Log10GI50 (MDA-MB-435)?
Answer: −5.55

Question: And the Log10LC50 (MDA-MB-435)?
Answer: >−4.00

Question: And the Log10TGI (MDA-MB-435)?
Answer: −4.65

Question: And the Log10GI50 (SK-MEL-2)?
Answer: −5.60

Question: And the Log10LC50 (SK-MEL-2)?
Answer: >−4.00

Question: What about the Log10TGI (SK-MEL-2) of the same compound?
Answer: −5.18

Question: What about the Log10GI50 (OVCAR-4) of the same compound?
Answer: −5.54

Question: And the Log10LC50 (OVCAR-4)?
Answer: >−4.00

Question: What about the Log10TGI (OVCAR-4) of the same compound?
Answer: >−4.00

Question: What about the Log10GI50 (OVCAR-8) of the same compound?
Answer: −5.38

Question: And the Log10LC50 (OVCAR-8)?
Answer: >−4.00

Question: What about the Log10TGI (OVCAR-8) of the same compound?
Answer: >−4.00

Question: And the Log10GI50 (SK-OV-3)?
Answer: −5.19

Question: And the Log10LC50 (SK-OV-3)?
Answer: >−4.00

Question: And the Log10TGI (SK-OV-3)?
Answer: >−4.00

Question: And the Log10GI50 (ACHN)?
Answer: −5.49

Question: And the Log10LC50 (ACHN)?
Answer: >−4.00

Question: What about the Log10TGI (ACHN) of the same compound?
Answer: >−4.00
